Assay results as given in paper PMC12064818, “A general assay platform to study protein pharmacology using ligand-dependent structural dynamics” (Nature Communications, 2025).
“And” between values parts separate entries of the source, which are not always exact repeats. Equal values may be shown once. Read-outs that look alike come from different tables or passages of the source. Each block holds one compound with its values, some of them ahead of it.

Tests used:
DHFR-C-HiBiT [1] = target: T1, DHFR-C-HiBiT (Homo sapiens, UniProt P00374); experiment: Dihydrofolate reductase enzymatic absorbance assay; assay type: biochemical; set-up: His10 (C); made in house; host or cells: E. coli
T1 sequence (P00374 2-187): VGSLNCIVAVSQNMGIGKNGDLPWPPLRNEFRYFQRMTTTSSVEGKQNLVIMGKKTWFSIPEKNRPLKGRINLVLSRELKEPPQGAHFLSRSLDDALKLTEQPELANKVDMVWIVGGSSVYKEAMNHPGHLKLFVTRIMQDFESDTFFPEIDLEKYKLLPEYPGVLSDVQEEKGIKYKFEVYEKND
Method: To accommodate consistent compound addition used in this study, DHFR enzymatic activity[72],[73] was measured in a 1536-well miniaturized assay adapted from the Sigma-Aldrich dihydrofolate reductase assay (Cat # CS0340). […] Compounds and controls were added as above to each plate as described in Supplementary Data 8. DHFR-C-HiBiT was incubated with compounds for 20 min at ambient temperature. […] Then 2 µL of dihydrofolate (DHF, Sigma-Aldrich, Cat # D7006) substrate, freshly prepared according to manufacturer’s protocol and diluted in 1X assay kit buffer, was dispensed into each microplate well with a BioRaptr 2 for a final assay DHF concentration of 100 μM. […] See Supplementary Table 9 for additional details.
Supplementary Table 9. Protocol for Dihydrofolate reductase (DHFR) enzymatic absorbance […]
Supplementary Table 9: Protocol for Dihydrofolate reductase (DHFR) enzym atic absorbance assay Sequence Param eter ValueDescription
No enzym e control (colum n 1) and enzym e solution (100 nM DHFR-C-HiBiT final assay […]
(Aurora), dispensed with BioRaptr 2 […]
com pounds transferred to respective colum ns with Pintool
2b Test Com pounds 23 nLfinal concentration range) in colum ns 5-48; com pounds transferred to respective wells with […]
3 Incubation 20 m inIncubate enzym e + com pounds at am bient tem p for 20 m in, protected from light 5 Reagent 2 µLSubstrate solution; dihydrofolic acid (100 µM final concentration) in 1X assay buffer; dispensed with BioRaptr 2
6 Incubation 10 m inAm bient tem perature, protected from light
Dihydrofolic acid substrate solution: 1X assay buffer (Sigm a-Aldrich, Cat # A5603); 300 µM dihydrofolic acid (100 µM 5 final) (Sigm a-Aldrich, Cat # D7006) prepared fresh according to m anufacturer’s protocol. Solution filtered through 0.22 µm syringe filter prior to dispense.

DHFR-C-HiBiT [2] = target: T1, DHFR-C-HiBiT; experiment: SDR assay, purified DHFR-C-HiBiT; details: for enhanced sensitivity in the SDR assay format versus functional DHFR assay: DHFR-C-HiBiT 0.5 nM, 5 μM NADPH (SDR) vs 100 nM, 75 μM NADPH (functional)
[3] = target: T2, endogenous DHFR-C-HiBiT in HEK293 cell lysate (Homo sapiens, UniProt P00374); experiment: SDR assay, cellular lysate from DHFR C-terminus HiBiT gene edited HEK293 cells; assay type: binding
T2 construct: from a mammalian cellular lysate containing an endogenous α-peptide tagged protein, obtained using CRISPR/Cas9-mediated homologous recombination; host or cells: HEK293 constitutively expressing S. pyogenes Cas9, CRISPR/HDR-edited monoclonal line; NP-40 lysate used at 1:100
T2 sequence (P00374 1-187): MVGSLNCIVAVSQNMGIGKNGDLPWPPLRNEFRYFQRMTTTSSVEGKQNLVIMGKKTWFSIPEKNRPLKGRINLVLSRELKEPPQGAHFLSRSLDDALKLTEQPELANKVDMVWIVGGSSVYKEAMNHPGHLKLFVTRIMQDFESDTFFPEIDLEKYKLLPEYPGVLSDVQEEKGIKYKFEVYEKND
Excerpt: A HEK293 cell line constitutively expressing S. pyogenes Cas9 (GeneCopoeia, Cat # SL553) was used to generate the C-terminal edit of the DHFR gene (DHFR-C-HiBiT) applying general methodology previously described[24],[52],[53]. The DHFR 3’-gene sequence surrounding the stop codon (underlined), […] […], used to generate the CRISPR-Cas9 crRNA sequence, […], was accomplished with IDT software (Custom Alt-R CRISPR-Cas9 guide RNA).
For lysate preparation, the DHFR-C-HiBiT gene edited HEK293 monoclonal cell line was grown in a T75 flask (DMEM, 10% FBS, 1% P/S) to confluence. […] The cell pellet was lysed by adding 500 μL ice-cold NP-40 lysis buffer (ThermoFisher Scientific, Cat # FNN0021) containing 5 µL 100x protease inhibitor cocktail in DMSO (Sigma Aldrich, Cat # P8340-1mL) incubated on a rocker at 4 °C for 1 h (protected from light), centrifuged at 15,000 g for 10 min at 4 °C, after which supernatant was transferred to a 1.5 mL Eppendorf tube, and frozen at −80 °C.
Protein-HiBiT targets were expressed and purified to various levels of homogeneity and optimized at indicated concentrations, not necessarily the lowest possible concentrations, to produce consistent luminescence with statistically significant signal above no protein background control in target specific assay buffer (see Supplementary Table 11). Four μL/well buffer control (column 1) and NLuc or HiBiT tagged proteins (columns 2-48) were dispensed into 1536-well Greiner Bio-One white, high solid base, medium bind plates with a BioRaptr 2. Compounds and controls were added to the microtiter plates as described in Supplementary Data 8, then incubated and protected from light for 30 min at ambient temperature. A modified dispensing protocol was developed for aqueous ligands that were unable to be transferred by pintool (see Supplementary Table 10 aqueous ligand dispense section). The substrate solution was prepared according to manufacturer’s protocol where ω-fragment (LgBiT) was added at 1:100 dilution and NLuc substrate (furimazine) was prepared at 1:50 dilution in Nano-Glo HiBiT lytic buffer (Promega, Cat # N3040). This substrate solution, 3 μL/well, was added with a BioRaptr 2 and assay plates were protected from light and incubated for 10 min at ambient temperature. NLuc luminescence was measured on a ViewLux CCD plate reader with optimized reader settings to each protein target (see Supplementary Tables 10, 11 and Supplementary Fig. 14 for additional details).

[4] = target: T3, ABL1-N-HiBiT kinase domain (Homo sapiens, UniProt P00519); experiment: SDR assay, ABL1-N-HiBiT; details: for SDR output: ABL1-N-HiBiT, Log [Compound]
T3 sequence (P00519 233-500): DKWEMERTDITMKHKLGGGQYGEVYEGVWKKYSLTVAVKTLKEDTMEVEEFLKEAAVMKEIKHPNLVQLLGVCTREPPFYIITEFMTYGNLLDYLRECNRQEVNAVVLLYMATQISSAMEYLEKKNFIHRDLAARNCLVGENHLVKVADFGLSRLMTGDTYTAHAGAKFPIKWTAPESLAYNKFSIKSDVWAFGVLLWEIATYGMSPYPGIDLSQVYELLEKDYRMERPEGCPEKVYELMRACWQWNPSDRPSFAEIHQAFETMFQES

PKA-N-HiBiT [5] = target: T4, PKA-N-HiBiT (Homo sapiens, UniProt P17612); experiment: PKA peptide phosphorylation, Kinase-Glo Plus (KGP) assay, PKA-N-HiBiT; assay type: biochemical; set-up: containing amino acids Gly2-Phe351; His10 (N); made in house; host or cells: E. coli BL21(DE3); details: KGP Rep 1
Method: Kinase activity was measured by ATP depletion using the Kinase-Glo Plus (KGP) assay kit (Promega) in 1536-well plate format. […] Controls were added with a Mosquito dispenser (STP LabTech) while compounds were transferred with a pintool to each plate as described in Supplementary Data 8 and incubated for 30 min at ambient temperature. […] Following a 10 min incubation, KGP luminescence was measured with a ViewLux plate reader with 1 sec exposure, with medium to high gain setting, slow speed and 2x binning. Data were normalized to the average of no enzyme control column as 100% kinase inhibition and DMSO control column as 100% phosphorylation reaction progress. See Supplementary Table 5 for additional details.
Protocol for Abelson kinase (ABL1) and protein kinase A (PKA) peptide phosphorylation assays
Supplementary Table 5: Protocol for Abelson kinase (ABL1) and protein kinase A (PKA) peptide phosphorylation assays Sequence Param eter Value Description
3 Incubation 30 m in Incubate enzym e + com pounds at am bient tem p for 30 m in, protected from light […]
protocol; dispensed with BioRaptr 2

ABL1 = details: cited from earlier work
PKA = details: annotation yes/no for kinase library compound; source not given; cited from earlier work
PKA-N-HiBiT [6] = target: T4, PKA-N-HiBiT; experiment: SDR assay, PKA-N-HiBiT
[7] = target: T3, ABL1-N-HiBiT kinase domain; experiment: ABL1 peptide phosphorylation, Kinase-Glo Plus (KGP) assay, ABL1-N-HiBiT; assay type: biochemical; set-up: containing amino acid residues Asp233-Ser500; His10 (N); made in house; host or cells: E. coli BL21(DE3)
[8] = target: T5, ABL1-C-HiBiT kinase domain (Homo sapiens, UniProt P00519); experiment: SDR assay, ABL1-C-HiBiT; details: for SDR output: ABL1-C-HiBiT, Log [Compound]
T5 sequence (P00519 233-500): T3 sequence (P00519 233-500)

Compound: CN(Cc1cnc2nc(N)nc(N)c2n1)c1ccc(C(=O)NC(CC(F)C(=O)O)C(=O)O)cc1 (centres unmarked) [g-fluoromethotrexate]
pIC50 (DHFR Enz Assay), Mean (DHFR-C-HiBiT [1]; functional DHFR-C-HiBiT assay (100 nM, 75 mM NADPH)): 6.55
pSDR50 (DHFR-C-HiBiT), Mean (DHFR-C-HiBiT [2]; SDR assay using DHFR-C-HiBiT (0.5 nM)): 8.70
pSDR50 (lysate + 1 mM NADPH), Mean ([3]; 1:100 lysate (~0.2 nM) with 1 mM NADPH): 9.1
pSDR50 (lysate), Mean ([3]; 1:100 lysate (~0.2 nM) without added NADPH): 7.8

Compound: Nc1nc(N)c2nc(CNc3ccc(C(=O)N[C@@H](CCC(=O)O)C(=O)O)cc3)cnc2n1 [aminopterin]
enhanced sensitivity in the SDR assay format versus functional DHFR assay (DHFR-C-HiBiT [2]): ~ 100 fold

Compound: Cn1c(=O)c2c(ncn2C)n(C)c1=O [Caffeine]
SDR Ave Max Response ([4]; ABL1-N-HiBiT qHTS, average maximal SDR response): 3.59
Efficacy (PKA-N-HiBiT [5]): -14.65
Hill Coef (PKA-N-HiBiT [5]): 2.85
Max Resp (PKA-N-HiBiT [5]): 7.79
CC-v2 (PKA-N-HiBiT [5]; curve class): 4
Annotated ABL1 activity (ABL1): no
Annotated PKA activity (PKA): no
SDR Ave Max Response (PKA-N-HiBiT [6]; PKA-N-HiBiT qHTS, SDR assay, average maximal response): -17.81

Compound: O=C(NCCO)c1cccc(-c2cc(Nc3ccc(OC(F)(F)F)cc3)ncn2)c1 [GNF-5, reference compound]
detection in ABL1-N-HiBiT SDR assay (in words) [4]: neither was identified
Emax ([4]; read-out: SDR Ave Max Response): 13.8%
detection in functional enzymatic ABL1 kinase assay (in words) ([7]; KGP assay): neither was identified
detection in ABL1-C-HiBiT SDR assay (in words) [8]: beginning to detect
Annotated PKA activity (PKA): no
Emax (PKA-N-HiBiT [6]; read-out: SDR Ave Max Response): 1.25%

Compound: CN(Cc1cnc2nc(N)nc(N)c2n1)c1ccc(C(=O)NC(CC(F)C(=O)O)C(=O)O)cc1 (centres unmarked) [γ-fluoromethotrexate]
enhanced sensitivity in the SDR assay format versus functional DHFR assay (DHFR-C-HiBiT [2]): ~ 100 fold

Compound: O=C(NCCO)c1cccc(-c2cc(Nc3ccc(OC(F)(F)F)cc3)ncn2)c1 [GNF5]
SDR output ([4]; M -4.51): -1.2
SDR output ([4]; M -8.12): 1.9 and 2.5
SDR output ([4]; M -8.42): 2.5
SDR output ([4]; M -8.72): 2.7 and 1.9
Effect on enzyme catalysis ([7]; Log [Compound], M -4.51): 1.2 and 2.4
SDR output ([8]; M -4.20): 11.5 and 10.7
SDR output ([8]; M -5.41): 4.5 and 3.0
SDR output ([8]; M -5.71): 0.159 and 0.3
SDR output ([8]; M -7.21): 1.8 and 1.6
SDR output ([8]; M -7.52): 3.3 and 3.0
SDR output ([8]; M -7.82): 5.4 and 5.3
SDR output ([8]; M -8.12): 3.3 and 3.7
SDR output ([8]; M -8.42): 7.4 and 4.5

Further lines, results first:

DHFR affinity in functional assay (in words) (DHFR-C-HiBiT [1]; DHFR-C-HiBiT 100 nM, 75 μM NADPH): poor DHFR affinity
DHFR binding in SDR assay (in words) (DHFR-C-HiBiT [2]; purified DHFR-C-HiBiT): poor DHFR affinity
Compound: Nc1nc2[nH]cc(CCc3ccc(C(=O)N[C@@H](CCC(=O)O)C(=O)O)cc3)c2c(=O)[nH]1 [pemetrexed]

enhanced sensitivity in the SDR assay format versus functional DHFR assay (DHFR-C-HiBiT [2]): ~ 100 fold
Compound: COc1cc(NCc2ccc3nc(N)nc(N)c3c2C)cc(OC)c1OC [trimetrexate]

IC50 (DHFR-C-HiBiT [1]; functional DHFR-C-HiBiT assay (100 nM), read-out: pIC50 (DHFR Enz Assay), Mean (converted)): 107 nM
EC50 (DHFR-C-HiBiT [2]): 1.02 nM
enhanced sensitivity in the SDR assay format versus functional DHFR assay (DHFR-C-HiBiT [2]): ~ 100 fold
EC50 ([3]; 1:100 lysate (~0.2 nM) with 1 mM NADPH, read-out: pSDR50 (lysate + 1 mM NADPH), Mean (converted)): 0.316 nM
EC50 ([3]; 1:100 lysate (~0.2 nM) without added NADPH, read-out: pSDR50 (lysate), Mean (converted)): 3.16 nM
Compound: C#CCC(Cc1cnc2nc(N)nc(N)c2n1)c1ccc(C(=O)N[C@@H](CCC(=O)O)C(=O)O)cc1 (some centres unmarked) [pralatrexate]
